From BindingDB's records for doi:10.1016/j.bmcl.2005.03.008 (Abbott Laboratories, 2005) come the findings set out here.

Molecules are shown by their SMILES.

The assay deals with T1, Dimer of Gag-Pol polyprotein [489-587] (Human immunodeficiency virus 1, UniProt P12497).
T1 construct: 489-587
Put plainly: Enzyme Inhibition Assay. The note with it: pH 4.5; 30 °C. As for the experimental part:
HIV-1 protease inhibition was measured by a fluorescence assay using recombinant HIV-1 protease. […] The percent inhibition of enzyme activity in the presence of inhibitor was determined by comparing inhibition rates with uninhibited control reactions. All IC50 values were determined with a range of inhibitor concentrations using the relation IC50 = (100/ percent inhibition - 1) x inhibitor concentration.
Turning to `Cc1nc(CN2CCN([C@H](C(=O)N[C@@H](Cc3ccccc3)[C@H](O)CN(CC(C)C)S(=O)(=O)c3cccc(CN=O)c3)C(C)C)C2=O)cs1` [(2S)-N-[(2S,3R)-3-hydroxy-4-({3-[(1E)-(hydroxyimino)methyl]benzene}(2-methylpropyl)sulfonamido)-1-phenylbutan-2-yl]-3-methyl-2-{3-[(2-methyl-1,3-thiazol-4-yl)methyl]-2-oxoimidazolidin-1-yl}butanamide], the IC50 (commonly the concentration that inhibits the measured activity by half) stood at 16 nM.

Turning to `Cc1nc(CN2CCN([C@H](C(=O)N[C@@H](Cc3ccccc3)[C@H](O)CN(CC(C)C)S(=O)(=O)c3ccc(CN=O)cc3)C(C)C)C2=O)cs1` [(2S)-N-[(2S,3R)-3-hydroxy-4-({4-[(1E)-(hydroxyimino)methyl]benzene}(2-methylpropyl)sulfonamido)-1-phenylbutan-2-yl]-3-methyl-2-{3-[(2-methyl-1,3-thiazol-4-yl)methyl]-2-oxoimidazolidin-1-yl}butanamide], the IC50 was 5 nM. This IC50 lies about 3.2-fold lower than the previous one.

With `CO/N=C/c1ccc(S(=O)(=O)N(CC(C)C)C[C@@H](O)[C@H](Cc2ccccc2)NC(=O)[C@H](C(C)C)N2CCN(Cc3csc(C)n3)C2=O)cc1` [(2S)-N-[(2S,3R)-3-hydroxy-4-({4-[(1E)-(methoxyimino)methyl]benzene}(2-methylpropyl)sulfonamido)-1-phenylbutan-2-yl]-3-methyl-2-{3-[(2-methyl-1,3-thiazol-4-yl)methyl]-2-oxoimidazolidin-1-yl}butanamide], the IC50 worked out at 653 nM. This IC50 lies about 130-fold higher than the previous one.

`Cc1nc(CN2CCN([C@H](C(=O)N[C@@H](Cc3ccccc3)[C@H](O)CN(CC(C)C)S(=O)(=O)c3ccc(CO)cc3)C(C)C)C2=O)cs1` [(2S)-N-[(2S,3R)-3-hydroxy-4-{[4-(hydroxymethyl)benzene](2-methylpropyl)sulfonamido}-1-phenylbutan-2-yl]-3-methyl-2-{3-[(2-methyl-1,3-thiazol-4-yl)methyl]-2-oxoimidazolidin-1-yl}butanamide] came in with an IC50 of 16 nM.
